Experimental data: PMC3117839, “Efficacy Study of Novel Diamidine Compounds in a Trypanosoma evansi Goat Model” (PLoS ONE, 2011)
Entries after “also recorded” stand apart in the source; their conditions may differ. Like-named read-outs stand apart in the source and are kept apart here.

Assays:
[1] = Plasma drug levels and pharmacokinetic parameters in T. evansi infected goats (HPLC/MS-MS); type: in vivo, goat
Experimental: In addition, blood samples were taken shortly before each compound injection was applied, to determine the trough levels. All samples were centrifuged at 3000 g for ten minutes. Subsequently, the plasma was removed, placed into sterile polypropylene cryotubes and stored away from light at −80°C. Mass spectrometry analysis was performed on all plasma samples using 25 µl aliquots. Calibrators were prepared separately for each analyte. Stock solutions of diminazene, DB 75, DB 867 and DB1192 were prepared in water. Curves were then prepared and analysed in duplicate, at both the beginning and the end of the analytical run. Concentrations of diminazene, DB 75, DB 867 and DB 1192 were determined by Liquid Chromatography/Triple Quadrupole Mass Spectrometry (HPLC/MS-MS). The pharmacokinetic parameters were determined using Microsoft® Excel software, with a functional set of add-ins applied, together with a graphical programme (GraphPad Prism 5, GraphPad Software Inc, USA). The compound plasma levels can be seen in Figure 1 for a) the standard drug, diminazene, b) DB 1192, c) DB 75 and d) DB 867. The plasma samples taken were analysed by HPLC/MS-MS to determine the drug concentrations (in ng/ml). From these values, the averages from the experimental goats in each group were calculated and drug concentration versus time curves were plotted with a line of best fit applied, corresponding to either the high or low compound dose tested.

T. evansi [2] = test: Curative efficacy in T. evansi experimentally infected goats (five month follow up, overall outcome); type: in vivo, Trypanosoma evansi (Canaries (Rubio) strain) in goats
Experimental: Various diagnostic tests were used to evaluate the curative efficacy of the compounds, over a five month follow up period. The haematocrit centrifugation technique, was utilised as the standard parasitological test. The serological CATT/T. evansi test was performed to determine the presence or absence of antibodies. As a validating molecular based technique, a mini-exon 18S ribosomal PCR method designed for the detection of parasite DNA was also applied.
Fresh camel blood (400 µl) was collected from the jugular vein of a camel and 200 µl volumes inoculated (i.p.) into two mice. Once a parasitaemia had established, blood was collected via cardiac puncture and mixed with phosphate buffered saline with glucose (PSG) to provide the T. evansi suspension used for experimental goat infection. Thereafter, all 25 goats were experimentally infected intravenously (i.v.), with 10^6 parasites/goat.
Goats were divided into 8 groups, where group 1 contained four goats whilst group's 2 to 8 each contained three goats. […] All test compounds were administered intra-muscularly with four applications, on days 32, 34, 36 and 38 post-infection. Thereafter, follow up diagnostic methods were carried out for five months post treatment.

T. evansi [3] = tested on: T. evansi; design: method as in PMID 20149544; details: cited from earlier work; for in vitro IC50: 72 hour assay against T. evansi; for estimated MIC (minimal inhibitory concentration): estimated at least four times the IC50
[4] = 1.25 mg/kg x4, 72 hours after final injection
[5] = 2.5 mg/kg x4, 72 hours after final injection
[6] = 2.5 mg/kg x4, 192 hours after final injection
[7] = goat plasma, four applications of 1.25 mg/kg i.m., average plasma levels
[8] = goat plasma, four applications of 2.5 mg/kg i.m., average plasma levels
[9] = 1.25 mg/kg i.m. x4, five month follow up
[10] = 2.5 mg/kg i.m. x4, five month follow up

| concentration in goat plasma [1, 4] | concentration in goat plasma [1, 5] | AUC [1, 7] | Cmax [1, 7] | MRT [1, 7] | T1/2 [1, 7] | AUC [1, 8] | Cmax [1, 8] | MRT [1, 8] | T1/2 [1, 8] | Structure (SMILES) | concentration in goat plasma [1, 6] | curative efficacy (T. evansi [2]; [9]) | curative efficacy (T. evansi [2]; [10]) | in vitro IC50 (T. evansi [3]) | estimated MIC (minimal inhibitory concentration) (T. evansi [3]) | further results |
| --- | --- | --- | --- | --- | --- | --- | --- | --- | --- | --- | --- | --- | --- | --- | --- | --- |
| above 1850 ng/ml | above 1850 ng/ml | 381604 | ≥3663 ng/mL | 87.9 h | 202.5 h | 360895 | ≥3310 ng/mL | 90.0 h | 221.4 h | N=C(N)c1ccc(-c2ccc(-c3ccc(C(=N)N)nc3)o2)cc1 [DB 867] |  | a relapse was seen during the final month of the follow up period | Complete curative efficacy; also recorded: cured; also recorded: curative efficacy was seen | 1.7 ng/mL | 6.8 ng/mL | time to relapse post treatment (T. evansi [2]; 1.25 mg/kg i.m. x4): 4.5 months |
|  |  |  |  |  |  |  |  |  |  | N=C(N)c1ccc(/N=N/Nc2ccc(C(=N)N)cc2)cc1 [Diminazene, Diminazene aceturate, reference compound] |  |  |  | 12.5 ng/mL | 50 ng/mL | half-life ([1]; Canarian, im, goat plasma, four applications of 5 mg/kg i.m., average plasma levels): 59.1 h; AUC ([1]; Canarian, im, goat plasma, four applications of 5 mg/kg i.m., average plasma levels, read-out: AUC): 194 µg·h/mL; Cmax ([1]; Canarian, im, goat plasma, four applications of 5 mg/kg i.m., average plasma levels, read-out: Cmax): ≥ 8640 ng/mL; MRT ([1]; Canarian, im, goat plasma, four applications of 5 mg/kg i.m., average plasma levels, read-out: MRT): 70.7 h; concentration at 72 h ([1]; goat, plasma, intramuscular, 5 mg/kg x4, 72 hours after the end of treatment): 1110 ng/mL; concentration at 192 h ([1]; goat, plasma, intramuscular, 5 mg/kg x4, 192 hours after final injection): 568 ng/mL; curative efficacy (T. evansi [2]; 5 mg/kg i.m. x4, five month follow up): Complete curative efficacy |
| 2223 ng/mL | 1923 ng/mL | 394305 | ≥3115 ng/mL | 89.5 h | 279.3 h | 358215 | ≥2530 ng/mL | 93.4 h | 473.7 h | N=C(N)c1ccc(-c2ccc(-c3ccc(C(=N)N)cc3)o2)cc1 [DB 75] | above 1500 ng/ml | Complete cure; also recorded: complete curative efficacy | Complete curative efficacy | 2.3 ng/mL | 9.2 ng/mL | concentration in goat plasma ([1]; 1.25 mg/kg x4, 192 hours after final injection): above 1500 ng/ml |

| Structure (SMILES) | concentration in goat plasma [1, 4] | concentration in goat plasma [1, 5] | AUC [1, 7] | Cmax [1, 7] | MRT [1, 7] | T1/2 [1, 7] | AUC [1, 8] | Cmax [1, 8] | MRT [1, 8] | T1/2 [1, 8] | concentration in goat plasma [1, 6] | curative efficacy (T. evansi [2]; [9]) | curative efficacy (T. evansi [2]; [10]) | in vitro IC50 (T. evansi [3]) | estimated MIC (minimal inhibitory concentration) (T. evansi [3]) | further results |
| --- | --- | --- | --- | --- | --- | --- | --- | --- | --- | --- | --- | --- | --- | --- | --- | --- |
| Cc1cc(C(=N)N)ccc1-c1cc2cc(C(=N)N)ccc2[nH]1 [DB 1192] | 18 ng/mL | 32 ng/mL | 4809 | ≥836 ng/mL | 52.3 h | 37.0 h | 9861 | ≥1563 ng/mL | 38.4 h | 30.5 h | 10 ng/mL | incapable of curing goats; also recorded: not effective | incapable of curing goats; also recorded: not effective | 10.5 ng/mL | around 40 ng/ml | time until plasma level fell below the therapeutic threshold ([1]; both doses (2.5 and 1.25 mg/kg), post treatment): ≤ 24 h |
